Structures are written as SMILES. Structures can show the parent of a compound that is named as a salt.

In the experiment the target is T1, human V1a receptor (Homo sapiens, UniProt P37288).
T1 construct: expressed in transfected cells; host or cells: HEK293 cells, transiently transfected; cell membranes prepared
In words: human V1a receptor binding study (3H-Vasopressin, SPA beads, HEK293 membranes). As to conditions: membranes of HEK293 cells transiently transfected with human V1a receptor; 3H-Vasopressin; Ki calculated using the Cheng-Prussoff equation; read-out: pKi (hV1a) (converted). An outline of the steps: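 Membranes from transiently transfected HEK293 cells on SPA beads in Tris with 120 mM NaCl, 5 mM KCl, 2 mM CaCl2 and 10 mM MgCl2. 3H-vasopressin is added as a 4 nM solution, with cold vasopressin defining non-specific binding. After 1 h at room temperature, IC50 by non-linear fit; Ki by Cheng-Prusoff.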

T1 sequence (P37288 whole entry): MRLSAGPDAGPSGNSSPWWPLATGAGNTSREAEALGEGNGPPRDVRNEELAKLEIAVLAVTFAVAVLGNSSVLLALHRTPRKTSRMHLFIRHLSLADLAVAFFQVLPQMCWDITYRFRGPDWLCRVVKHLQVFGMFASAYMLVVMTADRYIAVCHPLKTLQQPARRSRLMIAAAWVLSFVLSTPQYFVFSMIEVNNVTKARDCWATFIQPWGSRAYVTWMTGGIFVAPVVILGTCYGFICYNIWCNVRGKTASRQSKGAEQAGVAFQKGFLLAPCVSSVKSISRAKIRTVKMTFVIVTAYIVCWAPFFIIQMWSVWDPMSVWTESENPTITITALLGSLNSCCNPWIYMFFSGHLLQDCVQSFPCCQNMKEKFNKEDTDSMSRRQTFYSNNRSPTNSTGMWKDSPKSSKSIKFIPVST

With `CC(C)(C)OC(=O)N1Cc2cc(Cl)ccc2-n2c(nnc2[C@H]2CC[C@H](OC3CCCC3)CC2)C1` (stereo in doubt) [Example 36, trans-8-Chloro-1-(4-cyclopentyloxy-cyclohexyl)-4H,6H-2,3,5,10b-tetraaza-benzo[e]azulene-5-carboxylic acid tert-butyl ester], the Ki is 3.24 nM.
As to `Clc1ccc2c(c1)CNCc1nnc([C@H]3CC[C@H](OC4CCOCC4)CC3)n1-2` [Example 61, trans-8-Chloro-1-[4-(tetrahydro-pyran-4-yloxy)-cyclohexyl]-5,6-dihydro-4H-2,3,5,10b-tetraaza-benzoazulene hydrochloride], the Ki was 447 nM.
